Reference: US20240002441A1, “PEPTIDES AND USES THEREOF IN MODULATION OF AMYLOID-BETA PROTEIN DEGRADING PROTEASES” (priority 2020, published 2024)
Where two headings read alike, the source gives them in different places.

Experiments:
ACE1 = target: T1, ACE1 (Homo sapiens, UniProt P12821); assay: QFS assay of Aβ-degrading enzymes: ACE1 (Example 6); assay type: biochemical
T1 construct: purchased Sigma Aldrich SRP6270-10UG
Description: (§1) Plate reader-based enzyme assays were performed using a quenched fluorescent substrate (QFS) in a 96-well format using a SpectraMAX M4 Microplate reader (Molecular Devices). The increase in fluorescence following addition of QFS (40 μM) was taken as evidence of enzyme activity. Fluorescence was monitored over 2 h at 37° C. using κEx=320 nm and λEm=405 nm. Assays were conducted in black 96-well plates. Specific enzyme activity was expressed as a rate of substrate cleavage calculated using a standard curve of 7-methoxy-coumarin-4-acetic acid.
(§2) In all plate reader-based enzyme assays using QFS, the reaction rate (μmol of substrate cleaved/min) was calculated using linear regression analysis (GraphPad Prism software version 8.01). The reaction rates calculated were used to generate the enzyme kinetic parameters Vmax and Km through non-linear regression analysis (GraphPad Prism software, version 8.01; Michaelis-Menten equation). Where indicated, enzyme activity in the presence of peptide was expressed as a % of the enzyme alone. Data were expressed as mean±SEM and statistical significance was determined using t-tests or one-way ANOVAs followed by Tukey's post-hoc test. P<0.05 was considered as statistically significant. In all assays conducted using 96-well plates, the reaction mixtures in each well were considered an independent experiment.
(§3) SEQ ID NO:2 was assessed in a QFS assay against enzymes NEP, ECE1, ECE2, ACE1, ACE2, IDE and MMP-2 using the method in Example 2 and the following procedure. NEP, ACE1, ECE2 (0.05 ng/μL), ACE2, IDE (0.10 ng/μL), and ECE1 (6.4 ng/μL) were incubated with SEQ ID NO:2 (0.9-26 μM) or scrambled control (9 μM) for 1 h at 37° C. Prior to use, MMP2 (0.50 ng/μL) was activated using p-aminophenylmercuric acetate to a final concentration of 100 μM for 1 h at 37° C. Following activation, MMP2 was incubated with SEQ ID NO:2 for 1 h at 37° C. before adding the appropriate QFS.

ACE2 [1] = target: T2, ACE2 (Homo sapiens, UniProt Q9BYF1); assay: Cleavage of synthetic Ang II to Ang 1-7 by ACE2, LCMS (Example 8); assay type: biochemical; settings: rhACE2 0.1 ng/μL, peptide 1.7 μM, Ang II 0.02 μg/μL
T2 construct: purchased R & D systems 933-ZN-010
Description: (§4) Samples were analysed by LC-MS/MS using a quadrupole TOF mass spectrometer (MicroTOFq, Bruker Daltonics, Bremen, Germany) coupled online with a 1200 series nano-HPLC (Agilent technologies, Santa Clara, CA, USA). Samples were injected onto a zorbax 300SB reversed phase trap column with 95% solvent A (0.1% formic acid) at a flow rate of 10 μL/minute. The peptides were eluted over a 10-min gradient to 70% solvent B (80% acetonitrile, 0.1% formic acid) and separated on a 15-cm, 75-μmID zorbax 300SB nanocolumn. The eluent was nebulised and ionised using the Bruker nano-ESI source with a capillary voltage of 4500 V, dry gas at 180° C., flow rate of 5 L/minute and nebuliser gas pressure at 300 mbar. The MS acquisition was in selected ion monitoring mode after selected ion extraction of the MS spectra. Prior to analysis, the qTOF mass spectrometer was calibrated using a 1:50 dilution tuning mix (Agilent technologies, Santa Clara, CA, USA). Data from MS run were processed in Skyline version 19.1.0.193 (Uni. Of Washington, WA, USA) to perform ion chromatogram extractions and peak integrations.
rhACE2 (0.1 ng/μL) was incubated with SEQ ID NO:2 (1.7 μM) for 1 h at 37° C. Ang II (0.02 μg/μL) was then added to the reaction mixture. Aliquots of equal volume were collected at 0, 3, 6 and 24 h. […] The samples were analysed by LC-MS/MS using the method in Example 7.

ACE2 [2] = target: T2, ACE2; assay: QFS assay of Aβ-degrading enzymes: ACE2 (Example 6); assay type: biochemical
Description: as §1, §2, §3

NEP = target: T3, NEP (Homo sapiens, UniProt P08473); assay: Cleavage of synthetic Aβ40 by NEP, LCMS (Example 7); assay type: biochemical; settings: peptide 9 μM
T3 construct: purchased R & D systems 1182-ZNC-010
Description: Synthetic Aβ40 (0.10 μg/μL) was added to a reaction mixture containing NEP (0.05 ng/μL) pre-incubated with SEQ ID NO:2 or scrambled control (9 μM) for 1 h at 37° C. Synthetic Aβ42 (0.05 μg/μL) was added to a reaction mixture containing NEP (0.15 ng/μL) preincubated with either scrambled control or SEQ ID NO:2 (9 μM) for 1 h at 37° C. Samples containing enzyme alone had only NEP buffer (Table 2). The cleavage reaction was allowed to continue in a thermomixer at 37° C. Aliquots of equal volume were taken over 24 h. Aliquots were immediately acidified with 0.1% trifluoroacetic acid (TFA) to terminate enzyme activity and snap frozen in dry ice. Samples were stored at −80° C. until analysed by LCMS.
as §4

SARS-CoV-2 = assay type: cell-based; settings: pre-treatment, Vero cells, 8 h

T2 sequence (Q9BYF1 18-805): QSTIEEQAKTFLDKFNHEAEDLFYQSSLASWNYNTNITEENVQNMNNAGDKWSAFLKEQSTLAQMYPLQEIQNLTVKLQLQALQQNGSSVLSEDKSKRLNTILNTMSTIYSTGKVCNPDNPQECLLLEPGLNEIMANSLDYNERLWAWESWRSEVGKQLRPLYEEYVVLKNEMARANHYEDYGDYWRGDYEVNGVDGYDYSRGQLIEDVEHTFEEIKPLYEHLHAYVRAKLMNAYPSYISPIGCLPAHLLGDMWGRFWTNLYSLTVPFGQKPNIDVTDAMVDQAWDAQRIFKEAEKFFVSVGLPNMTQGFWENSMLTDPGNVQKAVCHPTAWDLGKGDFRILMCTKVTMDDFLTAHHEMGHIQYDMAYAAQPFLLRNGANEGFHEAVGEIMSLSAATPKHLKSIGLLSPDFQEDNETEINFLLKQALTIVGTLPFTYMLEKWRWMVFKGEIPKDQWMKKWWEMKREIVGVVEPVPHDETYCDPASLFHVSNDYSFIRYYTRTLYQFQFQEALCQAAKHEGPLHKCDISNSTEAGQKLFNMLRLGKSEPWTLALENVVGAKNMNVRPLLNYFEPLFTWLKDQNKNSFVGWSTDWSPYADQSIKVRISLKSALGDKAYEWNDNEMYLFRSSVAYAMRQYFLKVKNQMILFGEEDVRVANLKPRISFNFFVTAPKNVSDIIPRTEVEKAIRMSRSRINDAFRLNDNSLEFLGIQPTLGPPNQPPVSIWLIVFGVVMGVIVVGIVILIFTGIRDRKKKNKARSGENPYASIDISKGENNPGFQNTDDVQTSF
T3 sequence (P08473 whole entry): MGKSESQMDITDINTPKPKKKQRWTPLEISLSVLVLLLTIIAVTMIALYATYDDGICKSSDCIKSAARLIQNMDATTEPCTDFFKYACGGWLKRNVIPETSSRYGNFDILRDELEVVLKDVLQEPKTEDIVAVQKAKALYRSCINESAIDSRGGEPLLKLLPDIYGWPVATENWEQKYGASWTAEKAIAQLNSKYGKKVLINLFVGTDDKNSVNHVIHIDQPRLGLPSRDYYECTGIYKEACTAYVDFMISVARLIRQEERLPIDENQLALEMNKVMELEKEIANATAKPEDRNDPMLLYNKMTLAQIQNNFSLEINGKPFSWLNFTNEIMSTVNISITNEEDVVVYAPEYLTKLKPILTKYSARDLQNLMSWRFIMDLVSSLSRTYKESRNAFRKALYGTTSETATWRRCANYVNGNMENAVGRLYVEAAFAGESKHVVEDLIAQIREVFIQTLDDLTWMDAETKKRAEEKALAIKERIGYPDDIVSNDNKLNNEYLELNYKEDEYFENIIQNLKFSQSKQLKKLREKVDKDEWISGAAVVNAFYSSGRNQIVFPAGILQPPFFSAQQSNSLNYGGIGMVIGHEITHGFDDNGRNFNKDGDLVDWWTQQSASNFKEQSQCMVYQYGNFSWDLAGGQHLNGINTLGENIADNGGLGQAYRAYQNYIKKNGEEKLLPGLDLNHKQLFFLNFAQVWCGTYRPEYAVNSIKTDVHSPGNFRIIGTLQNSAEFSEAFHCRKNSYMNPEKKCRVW
T1 sequence (P12821 30-1306): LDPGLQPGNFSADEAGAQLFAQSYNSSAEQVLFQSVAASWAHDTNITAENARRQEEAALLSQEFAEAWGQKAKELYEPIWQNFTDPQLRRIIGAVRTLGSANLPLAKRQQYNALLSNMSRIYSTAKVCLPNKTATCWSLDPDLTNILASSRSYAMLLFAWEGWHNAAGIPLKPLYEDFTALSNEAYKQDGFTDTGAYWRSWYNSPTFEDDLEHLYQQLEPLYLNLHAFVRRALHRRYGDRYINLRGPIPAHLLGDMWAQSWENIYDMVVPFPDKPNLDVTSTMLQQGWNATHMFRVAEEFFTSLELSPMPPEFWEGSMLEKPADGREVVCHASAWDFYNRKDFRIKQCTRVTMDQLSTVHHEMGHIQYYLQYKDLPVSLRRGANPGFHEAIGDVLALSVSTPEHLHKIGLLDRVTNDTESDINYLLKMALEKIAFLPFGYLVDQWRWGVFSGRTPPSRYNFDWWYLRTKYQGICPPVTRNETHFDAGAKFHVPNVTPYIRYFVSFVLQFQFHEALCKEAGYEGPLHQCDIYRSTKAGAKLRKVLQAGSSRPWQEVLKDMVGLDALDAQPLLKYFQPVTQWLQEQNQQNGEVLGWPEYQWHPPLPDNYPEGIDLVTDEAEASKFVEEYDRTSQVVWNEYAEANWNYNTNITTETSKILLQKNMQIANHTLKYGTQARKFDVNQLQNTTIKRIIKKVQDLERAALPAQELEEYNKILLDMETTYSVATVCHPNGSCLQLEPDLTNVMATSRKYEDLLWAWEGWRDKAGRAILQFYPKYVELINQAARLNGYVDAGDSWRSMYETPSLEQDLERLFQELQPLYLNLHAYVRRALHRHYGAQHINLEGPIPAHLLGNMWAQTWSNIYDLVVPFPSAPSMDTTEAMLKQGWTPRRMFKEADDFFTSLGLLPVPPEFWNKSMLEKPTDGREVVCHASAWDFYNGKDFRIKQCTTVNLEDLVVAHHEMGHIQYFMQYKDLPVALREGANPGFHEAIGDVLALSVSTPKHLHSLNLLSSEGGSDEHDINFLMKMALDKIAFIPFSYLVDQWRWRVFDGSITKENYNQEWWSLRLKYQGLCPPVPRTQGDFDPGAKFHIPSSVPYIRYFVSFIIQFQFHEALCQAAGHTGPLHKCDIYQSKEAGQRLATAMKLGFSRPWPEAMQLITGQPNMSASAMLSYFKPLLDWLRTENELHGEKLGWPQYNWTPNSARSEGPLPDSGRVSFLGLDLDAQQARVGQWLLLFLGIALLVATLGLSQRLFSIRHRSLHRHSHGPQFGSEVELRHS

## H-SLFELGKMIL-NH2 [SEQ ID NO:2, H2N-SLFELGKMIL-NH2]
ACE1; peptide 2 μM (FIG. 2c)
  ACE1 activity compared with respective enzyme alone: significantly increased
ACE1; peptide 9 μM, significantly less compared with ACE2 and NEP
  ACE1 activity compared with respective enzyme alone: significantly higher
ACE1; peptide 0.9-26 μM
  ACE1 activity, concentration dependence: increased the activity
ACE2 [1]
  production of Ang 1-7: 165±12 % of ACE2 alone
ACE2 [1]; 24 h
  ACE2-mediated breakdown of Ang II over 24 h, decrease in peak area: 83±5 % of initial
ACE2 [2]; peptide 2 μM (FIG. 2c)
  ACE2 activity compared with respective enzyme alone: significantly increased
ACE2 [2]; peptide 9 μM
  activity of ACE2 as % of enzyme alone controls: 283%
ACE2 [2]; peptide 0.9-26 μM
  ACE2 activity, concentration dependence: increased the activity
NEP; Aβ40 cleavage
  decrease in Aβ1-21 peak area over 4-20 h: 7.5×10^7±1.3×10^7 arbitrary units
NEP; Aβ40 cleavage, 4 h
  levels of Aβ1-21 (peak area) at 4 h: 7.9×10^7±1.3×10^7 arbitrary units
NEP; Aβ40 cleavage, 24 h
  levels of Aβ1-21 (peak area) at 24 h: 4.1×10^6±4.8×10^5 arbitrary units
  peak area corresponding to Aβ1-12 after 24 h: 1.3×10^8±7.9×10^6 arbitrary units
NEP; NEP 0.05 ng/μL
  time at which breakdown of Aβ40 was complete: 4 h
NEP; NEP 0.05 ng/μL, Aβ40 0.10 μg/μL, 4 h
  amount of Aβ40 remaining after 4 h (peak area): 1.3×10^6±2.7×10^5 arbitrary units
NEP; 24 h
  amount of Aβ40 remaining after 24 h, SEQ ID NO:2 versus scrambled control: no significant difference
SARS-CoV-2; 200 ng/μL
  viral titre compared to PBS: significantly reduced
SARS-CoV-2; 400 ng/μL
  viral RNA compared to PBS: significantly reduced
  viral titre compared to PBS: significantly reduced
